Measured values reported in patent US8518958B2, “Pyrido [2,3-D] pyrimidines and their use as kinase inhibitors” (Forma Therapeutics, Inc., priority 2006, dated 2013).

Columns and labels:
[1] = molecular target: C-Raf Raf-1 (truncated), active (Homo sapiens, UniProt P04049, Y340D/Y341D); assay: C-Raf kinase inhibition (MAPH assay / IMAP assay); settings: read-out: Biochemical IC50 C-Raf
In short: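 Truncated active human C-Raf (Y340D/Y341D), room temperature, top inhibitor concentration 10 μM in a dilution series for IC50. MAPH: 57.8 μM myelin basic protein with [γ-33P]ATP, kinase at 10% ATP turnover, 1 h, filter-bound radioactivity. IMAP: 400 nM fluorescent peptide, 20 mM Hepes pH 7.5 with 10 mM MnCl2, kinase at 50% turnover, fluorescence polarization.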

B-Raf delta1-415 = B-Raf delta1-415 (Homo sapiens, UniProt P15056); assay: B-Raf kinase inhibition (MAPH filter plate, 33P-ATP, MEK1 substrate); settings: read-out: Biochemical IC50 B-Raf
Chain of B-Raf delta1-415 (P15056 416-766): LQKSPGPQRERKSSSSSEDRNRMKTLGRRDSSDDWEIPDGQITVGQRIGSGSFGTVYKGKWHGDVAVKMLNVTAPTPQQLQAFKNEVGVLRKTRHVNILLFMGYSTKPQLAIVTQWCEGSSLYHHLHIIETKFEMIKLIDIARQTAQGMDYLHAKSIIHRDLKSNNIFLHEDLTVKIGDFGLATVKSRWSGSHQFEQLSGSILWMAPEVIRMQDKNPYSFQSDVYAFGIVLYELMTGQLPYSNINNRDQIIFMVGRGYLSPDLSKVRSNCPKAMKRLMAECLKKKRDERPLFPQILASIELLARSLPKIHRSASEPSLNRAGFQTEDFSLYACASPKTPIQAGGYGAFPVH
In short: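 Radiometric filter-binding assay with B-Raf delta1-415 at a level giving 50% turnover, MEK1 substrate and 33P-ATP (12.5 μCi/ml) in 20 mM Mops pH 7.0 with Mg/Mn, 1 h at room temperature. Inhibitor dilution series from 10 μM; EDTA-stopped reactions captured on phosphocellulose filters, counted by scintillation for IC50.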

HT-29 tumor cells = assay: Anti-proliferative activity, SRB assay; assay type: cell-based, human; settings: Homo sapiens, HT-29, 72 h, 72 hours exposure, read-out: CELLULAR IC50 HT-29
In short: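 Cells at 3,000-15,000/well, plated 24 h before compound, exposed to a concentration range for 72 hours. Proliferation measured by SRB staining after cold TCA fixation, absorbance at OD570; IC50 estimated from % inhibition versus DMSO-treated cells.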

Chain of C-Raf Raf-1 (truncated), active (P04049 306-648 Y340D/Y341D): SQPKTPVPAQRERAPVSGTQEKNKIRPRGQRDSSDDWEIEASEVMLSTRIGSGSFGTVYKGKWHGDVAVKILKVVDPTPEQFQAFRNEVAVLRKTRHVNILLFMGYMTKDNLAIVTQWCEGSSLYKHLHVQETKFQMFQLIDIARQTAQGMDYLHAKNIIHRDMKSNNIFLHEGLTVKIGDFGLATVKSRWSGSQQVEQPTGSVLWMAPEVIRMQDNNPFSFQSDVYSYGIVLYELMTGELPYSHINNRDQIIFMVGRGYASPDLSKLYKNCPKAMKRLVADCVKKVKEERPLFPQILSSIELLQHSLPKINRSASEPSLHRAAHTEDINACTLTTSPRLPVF

IC50 [1]	IC50 (B-Raf delta1-415)	IC50 (HT-29 tumor cells)	SMILES
< 100 nM	< 500 nM	< 1000 nM	COCCOn1c(=O)c(-c2c(Cl)cccc2Cl)cc2cnc(Nc3cccc(OC)c3)nc21 [Compound 68, 6-(2,6-Dichlorophenyl)-8-(2-methoxyethyl)oxy-2-(3-methoxyphenyl)amino-pyrido[2,3-d]pyrimidin-7-one]
< 100 nM	< 500 nM	< 1000 nM	COc1cccc(Nc2ncc3cc(-c4c(Cl)cccc4Cl)c(=O)n(OCCN)c3n2)c1 [Compound 70, 8-(2-Aminoethyl)oxy-6-(2,6-dichlorophenyl)-2-(3-methoxyphenyl)amino-pyrido[2,3-d]pyrimidin-7-one]
< 100 nM	< 100 nM	< 1000 nM	COc1cccc(Nc2ncc3cc(-c4c(Cl)cccc4Cl)c(=O)n(OCCO)c3n2)c1 [Compound 73, 6-(2,6-Dichlorophenyl)-8-(2-hydroxyethyl)oxy-2-(3-methoxyphenyl)amino-pyrido[2,3-d]pyrimidin-7-one]
< 500 nM	< 100 nM	< 1000 nM	CNCCOn1c(=O)c(-c2c(Cl)cccc2Cl)cc2cnc(Nc3cccc(OC)c3)nc21 [Compound 74, 6-(2,6-Dichlorophenyl)-8-(2-methylaminoethyl)oxy-2-(3-methoxyphenyl)amino-pyrido[2,3-d]pyrimidin-7-one]

More lines, now with the values behind:

SMILES	IC50 [1]	IC50 (B-Raf delta1-415)	IC50 (HT-29 tumor cells)
COn1c(=O)c(-c2c(Cl)cccc2Cl)cc2cnc(Nc3cc(C(=O)NCCN(C)C)n(C)c3)nc21 [Compound 67, 6-(2,6-Dichlorophenyl)-2-(5-(2-dimethylaminoethyl)aminocarbonyl-1-methyl-pyrrol-3-yl)-amino-8-methoxy-pyrido[2,3-d]pyrimidin-7-one]	< 100 nM	< 100 nM	< 1000 nM
COc1cccc(Nc2ncc3cc(-c4c(C)cccc4C)c(=O)n(OC)c3n2)c1 [Compound 69, 6-(2,6-Dimethylphenyl)-8-methoxy-2-(3-methoxyphenyl)-amino-pyrido[2,3-d]pyrimidin-7-one]	< 100 nM	< 500 nM	< 1000 nM
COc1cccc(Nc2ncc3cc(-c4c(Cl)cccc4Cl)c(=O)n(OCCCN)c3n2)c1 [Compound 71, 8-(3-Aminopropyl)oxy-6-(2,6-dichlorophenyl)-2-(3-methoxyphenyl)amino-pyrido[2,3-d]pyrimidin-7-one]	< 100 nM	< 100 nM	< 1000 nM
COc1cccc(Nc2ncc3cc(-c4c(F)cccc4Cl)c(=O)n(OC[C@@H](O)CO)c3n2)c1 [Compound 75, 6-(2-Chloro-6-fluorophenyl)-8-(2-(S)-2,3-dihydroxypropyl)oxy-2-(3-methoxyphenyl)amino-pyrido[2,3-d]pyrimidin-7-one]	< 100 nM	< 100 nM	< 1000 nM
COc1cccc(Nc2ncc3cc(-c4c(Cl)cccc4Cl)c(=O)n(OCCN(C)C)c3n2)c1 [Compound 77, 6-(2,6-Dichlorophenyl)-8-(2-dimethylaminoethyl)oxy-2-(3-methoxyphenyl)amino-pyrido[2,3-d]pyrimidin-7-one]	< 500 nM	< 100 nM	< 1000 nM
CN1CCN(c2ccc(Nc3ncc4cc(-c5c(F)cccc5Cl)c(=O)n(O)c4n3)cc2)CC1 [Compound 241]	> 1000 nM	< 500 nM	< 1000 nM
